From patent publication US20230069886A1, “AROMATIC SULPHONAMIDES DERIVATIVES THAT INHIBITS PDI A3, THEIR SYNTHESIS AND USE” (Uniwersytet Jagiellonski, priority 2020, published 2023)
In brackets after ≈: the same amount, converted by molar mass.

Columns and labels:
Format in all cases: cell-based, human
HT-29 = assay: MTT antiproliferative assay, 72 h, HT-29; settings: 72 hours exposition
Method: Anticancer activity of selected compounds of invention, PDI A3-inhibitors has been also tested in vitro in antiproliferative assay in normoxic and hypoxic conditions as well in estrogen-stimulated cancer cells. In the experiment, cells were seeded on 96-well plates (Sarstedt, Germany) in appropriate culture medium at a density of 10^5 cells/mL 24 h before adding the tested compounds. Cells were treated with each compound in four concentrations in the range 0.1-100 μg/mL. […] After 72 h of compound treatment at 37° C., 5% CO2 humid atmosphere and in wo different oxygen level conditions: 21%—normal and <1%—hypoxia. In some experiments the MDA-MB-231 and MCF-7 cells were seeded with or without 200 nM estradiol and after 24 h the tested compounds were added. […] Briefly, cells were fixed with 50 μL/well of 50% (w/v) trichloroacetic acid (Avantor Performance Materials, Gliwice, Poland). After 1 h incubation, plates were washed several times with tap water and 50 μL of 0.4% (w/v) solution of sulforhodamine B (Sigma-Aldrich, Germany) in 1% (v/v) acetic acid (Avantor Performance Materials, Gliwice, Poland) was added to each well. After 30 min incubation at room temperature, unbound dye was washed out with 1% (v/v) acetic acid, whereas bound dye was solubilized with 10 mM unbuffered TRIS (Avantor Performance Materials, Gliwice, Poland) solution. The entire procedure was performed using a BioTek EL-406 washing station (BioTek Instruments, USA). After additional 30 min, absorbance was read using a Biotek Hybrid H4 reader (BioTek Instruments, USA) at 540 nm wavelength. […] Absorbance was measured using a Biotek Hybrid H4 reader at 570 nm wavelength for MTT assay.
(§1) Compounds at each concentration were tested in triplicate in a single experiment and each experiment was repeated at least three times independently. Results are presented as mean IC50±SD.

[1] = system: MDA-MB-231 cell transmigration across IL-1β-stimulated hLMVECs; assay: Transendothelial migration of MDA-MB-231 cells across hLMVEC monolayer; settings: IL-1β 10 ng/mL (6 hours)-stimulated hLMVECs, 24 h co-culture, FIG. 6
Method: To assess whether compounds of invention, PDI A3-inhibitors are also effective as inhibitors of cancer cell transmigration through endothelium the transmigration assay with MDA-MB-231/lung microvascular endothelium was used as described previously (Stojak et al., 2018). Cell migration was assayed in 24-well, 6.5-mm internal-diameter Transwell plates (8.0 μm pore size; BD Pharmingen). Human lung microvascular endothelial cells (hLMVECs) were seeded into 24-well plates (seeding density 5×10^4 cells/insert) on the upper side of the filter and left to grow to confluence. After confluent monolayer formation, hLMVECs were pre-treated with 10 ng/mL IL-1β for 6 h. Prior to use in transmigration assay, cancer cells were pre-incubated with various concentrations (3, 10, 30, 50, 100 μM) of tested inhibitors of PDIA3, C-3390, C-3399 for 30 min. Then, MDA-MB-231 cells (each 5×10^4 per well) were placed into upper chambers and tested PDI inhibitors at various concentrations (1, 10, 30, 50, 100 μM) were given. Lower chambers were filled with medium containing chemoattractant (20% FBS or 100 ng/mL SDF-1α). After 24 h of co-culture, hLMVEC monolayers and non-migrating cancer cells on the upper surface of the membrane were removed. […] The cell number was determined by measuring the fluorescence using plate reader. […]

MDA-MB-231 = assay: MTT antiproliferative assay, 72 h, with or without estradiol, MDA-MB-231
Method: Anticancer activity of selected compounds of invention, PDI A3-inhibitors has been also tested in vitro in antiproliferative assay in normoxic and hypoxic conditions as well in estrogen-stimulated cancer cells. In the experiment, cells were seeded on 96-well plates (Sarstedt, Germany) in appropriate culture medium at a density of 10^5 cells/mL 24 h before adding the tested compounds. Cells were treated with each compound in four concentrations in the range 0.1-100 μg/mL. […] After 72 h of compound treatment at 37° C., 5% CO2 humid atmosphere and in wo different oxygen level conditions: 21%—normal and <1%—hypoxia. In some experiments the MDA-MB-231 and MCF-7 cells were seeded with or without 200 nM estradiol and after 24 h the tested compounds were added. A previously described sulforhodamine B antiproliferative assay was used with minor modifications (Skehan P et al., 1990). Briefly, cells were fixed with 50 μL/well of 50% (w/v) trichloroacetic acid (Avantor Performance Materials, Gliwice, Poland). After 1 h incubation, plates were washed several times with tap water and 50 μL of 0.4% (w/v) solution of sulforhodamine B (Sigma-Aldrich, Germany) in 1% (v/v) acetic acid (Avantor Performance Materials, Gliwice, Poland) was added to each well. After 30 min incubation at room temperature, unbound dye was washed out with 1% (v/v) acetic acid, whereas bound dye was solubilized with 10 mM unbuffered TRIS (Avantor Performance Materials, Gliwice, Poland) solution. The entire procedure was performed using a BioTek EL-406 washing station (BioTek Instruments, USA). After additional 30 min, absorbance was read using a Biotek Hybrid H4 reader (BioTek Instruments, USA) at 540 nm wavelength. MTT assay was used alternatively for HL-60 cell line and in the experiment in which estrogens are added (specified in the table legend). Absorbance was measured using a Biotek Hybrid H4 reader at 570 nm wavelength for MTT assay.
as §1

## COC(=O)C1CN1S(=O)(=O)c1ccc2c(C=O)c(N(C)C)ccc2c1 (centres unmarked) [Compound C-3390, Methyl 1-[[6-(dimethylamino)-5-formyl-2-naphthyl]sulfonyl]aziridine-2-calboxylate]
HT-29
  IC50 [μg/ml] HT-29 normal: 33.6 ± 2.9 µg/mL (≈ 92.7 µM)
[1]
  Inhibition of MDA-MB-231 cell transmigration: inhibited MDA-MB-231 cell transmigration
MDA-MB-231; estradiol (200 nM), Table 4
  Sensitivity of MDA-MB-231 line after treatment with estradiol: slightly lower sensitivity
MDA-MB-231; not pretreated with estradiol, 72 hours exposition, MTT
  IC50 [μg/ml] MDA-MB-231 normal: 3.2 ± 0.2 µg/mL (≈ 8.83 µM)
MDA-MB-231; pretreated with 200 nM estradiol, 72 hours exposition, MTT
  IC50 [μg/ml] MDA-MB-231 +estradiol: 9.4 ± 3.5 µg/mL (≈ 25.9 µM)
